Experiment [1] in a line: microbe, parasite or virus in culture. In kind it is functional. To be noted: Mycobacterium tuberculosis.
A short description of experiment [2]: M. tuberculosis growth inhibition, HTS (AID 449762). In kind it is functional.
For a further experiment, the target named is Ephrin type-A receptor 4 (Mus musculus, UniProt Q03137). In words: EphA4 ligand-binding antagonists – biochemical, colorimetric, mouse EphA4, primary screen (AID 689). In kind it is functional.
Experiment [3] has as its target T1, Estrogen receptor beta (Homo sapiens, UniProt Q92731). In words: blockers of SRC-3 recruitment to ERβ – biochemical, ELISA, streptavidin-HRP readout, orthogonal assay, confirmation (AID 1060). On the technique in general: In an ELISA, binding on a coated surface is turned into a signal by an enzyme label.
Experiment [4] concerns the target T2, Induced myeloid leukemia cell differentiation protein Mcl-1 (Homo sapiens, UniProt Q07820). In kind it is functional.
Another experiment relates to Vero. In words: mammalian cell viability reduction – secondary assay, cytotoxicity control for West Nile virus antiviral project, dose response (AID 1650). To be noted: Chlorocebus sabaeus. In kind it is functional.
For experiment [5], the target named is T3, Tyrosine-protein phosphatase non-receptor type 7 (Homo sapiens, UniProt P35236).
T3 sequence (P35236 whole entry): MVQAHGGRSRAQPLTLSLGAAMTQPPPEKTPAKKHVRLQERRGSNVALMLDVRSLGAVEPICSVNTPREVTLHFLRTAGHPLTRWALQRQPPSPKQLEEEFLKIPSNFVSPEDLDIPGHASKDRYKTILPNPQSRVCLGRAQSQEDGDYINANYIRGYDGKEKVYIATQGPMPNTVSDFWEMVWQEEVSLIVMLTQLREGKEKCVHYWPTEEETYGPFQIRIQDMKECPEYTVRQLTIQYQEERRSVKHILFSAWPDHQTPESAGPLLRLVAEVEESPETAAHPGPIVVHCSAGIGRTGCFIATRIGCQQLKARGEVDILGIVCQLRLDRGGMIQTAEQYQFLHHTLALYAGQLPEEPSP
In words: HePTP tyrosine phosphatase activity blockers – biochemical, absorbance, leukemia target, primary screen (AID 521). In kind it is functional.

In the next experiment the target is Bcl-2-like protein 1 (Homo sapiens, UniProt Q07817). In words: blockers of BCLXL peptide binding – biochemical, fluorescence polarization, 1536-well, selectivity assay for MCL1 inhibitor project, dose response (AID 2218).
Bcl-2-like protein 1, sequence (Q07817 whole entry): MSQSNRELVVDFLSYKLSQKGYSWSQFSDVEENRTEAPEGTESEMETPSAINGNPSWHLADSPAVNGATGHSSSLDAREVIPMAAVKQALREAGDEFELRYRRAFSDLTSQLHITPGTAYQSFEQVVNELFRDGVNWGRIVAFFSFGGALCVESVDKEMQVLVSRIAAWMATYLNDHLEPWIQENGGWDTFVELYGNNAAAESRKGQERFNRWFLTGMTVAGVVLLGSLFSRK
Experiment [6] deals with T1, Estrogen receptor beta.
The target of experiment [7] is T2, Induced myeloid leukemia cell differentiation protein Mcl-1. Put plainly: blockers of MCL1 binding to BIM peptide – biochemical, fluorescence polarization, BIM-BH3 peptide, 1536-well, dose response (AID 2217).
Another experiment deals with T4, Bcl-2-like protein 10 (Homo sapiens, UniProt Q9HD36).
T4 sequence (Q9HD36 whole entry): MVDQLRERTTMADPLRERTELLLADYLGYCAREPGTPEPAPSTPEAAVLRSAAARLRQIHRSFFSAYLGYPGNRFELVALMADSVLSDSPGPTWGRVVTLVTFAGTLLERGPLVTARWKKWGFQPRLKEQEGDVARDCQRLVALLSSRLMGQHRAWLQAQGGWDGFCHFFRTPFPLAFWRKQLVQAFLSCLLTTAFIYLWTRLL
In words: Bcl-B/TR3 peptide binding disruption – biochemical, fluorescence polarization, FITC-TR3 peptide, selectivity assay for Bfl-1 inhibitor project, primary screen (AID 748). (Fluorescence polarisation rises when a labelled molecule tumbles more slowly, as on binding a larger partner.)

Experiment [8] concerns the target T5, Dual specificity protein phosphatase 6 (Rattus norvegicus, UniProt Q64346).
T5 sequence (Q64346 whole entry): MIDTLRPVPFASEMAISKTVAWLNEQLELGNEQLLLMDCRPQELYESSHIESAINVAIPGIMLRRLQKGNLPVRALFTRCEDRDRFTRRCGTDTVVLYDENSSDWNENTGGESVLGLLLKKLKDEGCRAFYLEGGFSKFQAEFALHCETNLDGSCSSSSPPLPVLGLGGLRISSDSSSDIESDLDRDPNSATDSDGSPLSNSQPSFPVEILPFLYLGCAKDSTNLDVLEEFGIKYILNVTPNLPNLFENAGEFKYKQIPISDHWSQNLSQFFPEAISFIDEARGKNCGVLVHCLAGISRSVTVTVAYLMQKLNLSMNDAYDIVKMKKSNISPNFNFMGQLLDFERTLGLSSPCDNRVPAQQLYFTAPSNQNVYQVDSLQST
Put plainly: inhibition of rat DUSP6 enzyme activity – biochemical, in vitro, primary screen (AID 425).

Experiment [9] concerns the target T6, Bcl-2-related protein A1 (Mus musculus, UniProt Q07440).
T6 sequence (Q07440 whole entry): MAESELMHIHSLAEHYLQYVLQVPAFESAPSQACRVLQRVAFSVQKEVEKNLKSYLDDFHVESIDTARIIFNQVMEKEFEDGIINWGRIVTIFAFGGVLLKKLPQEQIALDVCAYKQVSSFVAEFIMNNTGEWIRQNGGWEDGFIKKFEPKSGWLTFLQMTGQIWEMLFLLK
Put plainly: Bfl-1 binding inhibitors, SAR follow-up, biochemical, fluorescence polarization (AID 1070).

The next experiment relates to CHO. Put plainly: CHO cell viability loss, potency – luminescence, cytotoxicity control for TLR9-MyD88 binding inhibitor project, dose response (AID 588339).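 Note: CHO cells stably coexpressing TLR9 and MyD88 fusions from primary screen; compound exposure lasted 48 hours before viability readout.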 In kind it is functional, cell-based, hamster. To be noted: Cricetulus griseus.
The next experiment concerns INS1. Put plainly: INS-1E survival protection against cytokine death – cell-based, luminescence, retest, dose response (AID 449756).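 Note: cell death triggered by IL-1 beta plus TNF-alpha plus IFN-gamma mixture; protective hits raise ATP signal compared with cytokine alone wells.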 To be noted: Rattus norvegicus. In kind it is functional.
Experiment [10] in a line: non-specific 3'UTR reporter inhibition in Clone20-Shn3RL – cell-based, Renilla luciferase, cherry-picked, counter-screen for Shn3 inhibitor project, dose response (AID 624133). In kind it is functional. A general note: Counterscreens check selectivity or assay interference.
Experiment [11] in a line: loss of viability in HepG2 cells – cell-based, CellTiter-Glo, cherry-picked, cytotoxicity control for Shn3 inhibitor project, dose response (AID 624134). In kind it is functional.
Experiment [12] can be described thus: reduced cellular PGC1a acetyl-lysine signal – cell-based, cherry-picked samples, dose response (AID 720514).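 Note: potency may reflect raised or lowered acetylation signal.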 In kind it is functional.
In experiment [13] the target is T6, Bcl-2-related protein A1. Put plainly: displacement of Bid BH3 peptide from Bfl-1 – biochemical, fluorescence polarization, FITC-Bid, mouse, primary screen (AID 432).
Experiment [14] has as its target Glyceraldehyde-3-phosphate dehydrogenase (Homo sapiens, UniProt P04406).
The nature of experiment [15]: reduction of Shn3 3'UTR-driven luciferase in osteoblasts – cell-based, Clone20 osteoblasts, firefly luciferase, cherry-picked, dose response (AID 624132).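 Note: firefly luciferase luminescence from reporter carrying the Shn3 3'UTR in osteoblasts.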 In kind it is functional.
Experiment [16] deals with T7, Replicative DNA helicase DnaB (Mycobacterium tuberculosis, UniProt P9WMR3).
T7 sequence (P9WMR3 whole entry): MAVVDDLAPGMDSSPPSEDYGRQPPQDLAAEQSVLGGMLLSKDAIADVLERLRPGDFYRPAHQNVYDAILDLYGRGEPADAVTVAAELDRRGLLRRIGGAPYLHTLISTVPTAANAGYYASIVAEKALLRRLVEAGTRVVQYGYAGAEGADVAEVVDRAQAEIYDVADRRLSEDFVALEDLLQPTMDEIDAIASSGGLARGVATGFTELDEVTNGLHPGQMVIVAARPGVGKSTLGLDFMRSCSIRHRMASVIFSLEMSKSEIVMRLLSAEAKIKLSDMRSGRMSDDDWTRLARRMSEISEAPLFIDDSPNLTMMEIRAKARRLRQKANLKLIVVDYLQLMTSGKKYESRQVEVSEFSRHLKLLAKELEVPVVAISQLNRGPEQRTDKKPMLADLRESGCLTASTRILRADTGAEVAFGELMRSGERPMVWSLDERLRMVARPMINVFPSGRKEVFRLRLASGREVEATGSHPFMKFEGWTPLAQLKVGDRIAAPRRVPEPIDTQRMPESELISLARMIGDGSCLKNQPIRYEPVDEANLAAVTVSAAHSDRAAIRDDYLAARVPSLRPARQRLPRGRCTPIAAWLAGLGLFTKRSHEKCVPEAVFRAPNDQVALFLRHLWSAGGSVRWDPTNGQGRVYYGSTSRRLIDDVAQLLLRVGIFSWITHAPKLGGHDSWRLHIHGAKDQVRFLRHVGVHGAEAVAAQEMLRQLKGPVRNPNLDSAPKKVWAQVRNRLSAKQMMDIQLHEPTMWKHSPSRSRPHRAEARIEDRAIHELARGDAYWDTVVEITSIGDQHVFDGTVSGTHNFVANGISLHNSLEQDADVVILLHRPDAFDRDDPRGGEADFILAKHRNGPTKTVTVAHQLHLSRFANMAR
Put plainly: DnaB intein splicing inhibitors, dose response, biochemical, cell-free fluorescence (AID 449749). In kind it is functional.

In another experiment the target is Beta Lactamase (Pseudomonas aeruginosa, UniProt Q932Y6). Put plainly: BLA reporter interference, concentration series – BLA reporter cells, FRET fluorescence, artefact control for TLR9-MyD88 binding inhibitor project, dose response (AID 588341).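 Note: cell based assay in CHO-K1 cells stably expressing beta-lactamase.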 In kind it is cell-based.
Beta Lactamase, sequence (Q932Y6 whole entry): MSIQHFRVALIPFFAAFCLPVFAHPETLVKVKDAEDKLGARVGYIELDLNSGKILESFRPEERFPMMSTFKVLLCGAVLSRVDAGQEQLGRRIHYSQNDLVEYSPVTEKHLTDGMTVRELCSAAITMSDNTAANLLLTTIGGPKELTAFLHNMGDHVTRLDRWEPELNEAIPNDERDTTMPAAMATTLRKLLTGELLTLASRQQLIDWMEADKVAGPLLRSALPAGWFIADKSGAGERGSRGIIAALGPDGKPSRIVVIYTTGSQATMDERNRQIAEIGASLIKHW
Experiment [17] can be described thus: Luminescence Cell-Based Dose Retest to Confirm Inhibitors of Cancer Stem Cells. [Related pubchem assays (depositor defined):AID2717, AID2721]. To be noted: Homo sapiens. In kind it is functional.
Experiment [18] has as its target T6, Bcl-2-related protein A1. In words: small-molecule antagonists of Bfl-1/BH3 interaction – biochemical, TR-FRET, mouse Bfl-1, confirmation (AID 621).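 Note: TR-FRET binding of GST-Bfl-1 to FITC-labelled Bid peptide via terbium antibody.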
Another experiment has as its target T8, Protein RecA (Mycobacterium tuberculosis, UniProt P9WHJ3).
T8 sequence (P9WHJ3 whole entry): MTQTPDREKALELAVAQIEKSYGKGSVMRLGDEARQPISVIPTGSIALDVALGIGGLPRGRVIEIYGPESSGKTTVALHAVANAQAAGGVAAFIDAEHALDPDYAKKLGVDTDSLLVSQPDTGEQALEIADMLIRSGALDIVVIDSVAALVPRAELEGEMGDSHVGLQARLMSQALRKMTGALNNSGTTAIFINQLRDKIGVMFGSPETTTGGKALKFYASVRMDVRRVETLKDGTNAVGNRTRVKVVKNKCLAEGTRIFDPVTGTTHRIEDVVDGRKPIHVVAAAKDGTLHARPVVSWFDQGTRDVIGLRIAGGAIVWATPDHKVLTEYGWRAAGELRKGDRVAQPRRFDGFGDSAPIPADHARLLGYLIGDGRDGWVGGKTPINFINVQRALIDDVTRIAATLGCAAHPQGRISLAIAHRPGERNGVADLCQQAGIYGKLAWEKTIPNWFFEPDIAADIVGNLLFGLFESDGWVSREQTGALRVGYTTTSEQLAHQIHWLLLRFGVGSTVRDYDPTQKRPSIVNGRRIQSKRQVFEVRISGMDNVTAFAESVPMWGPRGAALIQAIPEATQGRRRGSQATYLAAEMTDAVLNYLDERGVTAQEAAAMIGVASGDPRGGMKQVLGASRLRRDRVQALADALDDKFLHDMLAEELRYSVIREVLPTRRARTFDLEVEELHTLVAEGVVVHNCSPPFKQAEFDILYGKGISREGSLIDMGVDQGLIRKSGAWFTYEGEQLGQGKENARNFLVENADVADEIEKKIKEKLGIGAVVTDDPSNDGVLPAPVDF
In words: Fluorescence Cell-Free Homogeneous Dose Retest to Identify Inhibitors of RecA-Intein Splicing Activity. [Related pubchem assays (depositor defined):AID2097, AID2223, AID489010, AID492950]. In kind it is functional.

The next experiment deals with Danio rerio. Put plainly: In Vivo Angiogenesis Dose-Response Confirmation. [Related pubchem assays: 732 (Assay preceding this confirmatory assay.)]. In kind it is functional, organism-based.
The target of experiment [19] is Solute carrier family 12 member 2/member 5 (Homo sapiens, UniProt P55011+Q9H2X9). Put plainly: KCC2 and NKCC1 inhibition by rubidium flux, cell-based, NKCC1 counter-screen (AID 1734). In kind it is functional, HEK293.

“And” between values parts separate entries of the source, which are not always exact repeats. Equal values may be shown once. The source made the active and inactive calls.

T1 sequence (Q92731 whole entry): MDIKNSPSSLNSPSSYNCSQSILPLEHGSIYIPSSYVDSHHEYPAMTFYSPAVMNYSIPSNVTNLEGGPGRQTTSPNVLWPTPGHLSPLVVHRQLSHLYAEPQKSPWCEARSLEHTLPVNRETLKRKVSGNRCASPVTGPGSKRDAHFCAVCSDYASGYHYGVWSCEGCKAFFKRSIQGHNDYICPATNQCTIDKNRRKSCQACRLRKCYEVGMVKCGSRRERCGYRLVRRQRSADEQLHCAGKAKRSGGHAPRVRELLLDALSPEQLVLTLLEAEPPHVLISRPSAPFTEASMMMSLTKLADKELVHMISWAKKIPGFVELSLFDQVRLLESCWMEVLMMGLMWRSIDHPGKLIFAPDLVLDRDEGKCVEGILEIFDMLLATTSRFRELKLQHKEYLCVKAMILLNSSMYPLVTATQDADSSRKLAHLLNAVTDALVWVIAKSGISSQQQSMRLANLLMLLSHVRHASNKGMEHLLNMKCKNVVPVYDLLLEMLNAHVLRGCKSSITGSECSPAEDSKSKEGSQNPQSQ
T2 sequence (Q07820 whole entry): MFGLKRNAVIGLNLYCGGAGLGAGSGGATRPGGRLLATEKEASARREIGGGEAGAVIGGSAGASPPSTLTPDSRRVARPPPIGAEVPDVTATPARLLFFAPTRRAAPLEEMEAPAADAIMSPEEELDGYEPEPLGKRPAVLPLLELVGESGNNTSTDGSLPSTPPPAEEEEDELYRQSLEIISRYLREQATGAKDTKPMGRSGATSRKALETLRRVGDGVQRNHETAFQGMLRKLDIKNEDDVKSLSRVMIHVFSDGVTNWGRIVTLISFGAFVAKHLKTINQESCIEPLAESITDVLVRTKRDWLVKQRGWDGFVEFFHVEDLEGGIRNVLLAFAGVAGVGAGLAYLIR
Glyceraldehyde-3-phosphate dehydrogenase, sequence (P04406 whole entry): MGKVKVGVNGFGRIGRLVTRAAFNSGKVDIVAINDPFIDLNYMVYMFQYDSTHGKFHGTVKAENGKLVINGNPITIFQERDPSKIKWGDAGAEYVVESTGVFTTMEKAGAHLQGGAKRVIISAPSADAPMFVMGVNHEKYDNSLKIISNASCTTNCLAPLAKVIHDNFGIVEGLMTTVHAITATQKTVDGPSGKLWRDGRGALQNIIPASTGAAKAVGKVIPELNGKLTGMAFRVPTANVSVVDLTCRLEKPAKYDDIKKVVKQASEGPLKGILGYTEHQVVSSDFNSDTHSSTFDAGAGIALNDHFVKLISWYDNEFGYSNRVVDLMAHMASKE
Ephrin type-A receptor 4, sequence (Q03137 whole entry): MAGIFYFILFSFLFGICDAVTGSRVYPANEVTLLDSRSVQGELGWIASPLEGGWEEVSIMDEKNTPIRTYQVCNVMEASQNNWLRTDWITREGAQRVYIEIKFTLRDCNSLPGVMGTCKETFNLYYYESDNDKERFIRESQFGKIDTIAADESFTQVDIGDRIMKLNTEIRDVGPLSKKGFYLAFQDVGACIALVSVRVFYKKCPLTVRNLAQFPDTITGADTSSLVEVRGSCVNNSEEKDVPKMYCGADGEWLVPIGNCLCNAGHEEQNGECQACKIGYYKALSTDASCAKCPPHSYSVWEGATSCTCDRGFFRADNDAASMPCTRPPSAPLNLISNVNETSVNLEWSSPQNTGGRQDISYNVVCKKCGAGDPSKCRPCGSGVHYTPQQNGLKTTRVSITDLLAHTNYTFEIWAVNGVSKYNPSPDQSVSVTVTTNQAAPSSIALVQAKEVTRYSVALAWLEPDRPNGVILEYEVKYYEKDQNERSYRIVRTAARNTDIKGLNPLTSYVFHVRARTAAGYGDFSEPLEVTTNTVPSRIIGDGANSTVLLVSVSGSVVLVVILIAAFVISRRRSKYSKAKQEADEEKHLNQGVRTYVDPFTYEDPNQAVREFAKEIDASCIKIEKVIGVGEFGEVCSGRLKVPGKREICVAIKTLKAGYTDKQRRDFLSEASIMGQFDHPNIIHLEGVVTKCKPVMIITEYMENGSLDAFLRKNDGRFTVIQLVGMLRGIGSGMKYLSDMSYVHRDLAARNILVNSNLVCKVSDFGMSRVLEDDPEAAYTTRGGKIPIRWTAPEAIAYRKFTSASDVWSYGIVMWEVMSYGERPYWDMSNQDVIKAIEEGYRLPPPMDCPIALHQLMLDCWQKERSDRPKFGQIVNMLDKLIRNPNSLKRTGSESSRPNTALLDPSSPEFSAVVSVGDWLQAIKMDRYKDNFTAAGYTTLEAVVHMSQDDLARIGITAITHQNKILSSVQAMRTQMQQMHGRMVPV

The term IC50 denotes the concentration that inhibits the measured activity by half. Consider `CCOc1cc(/C=N\NC(=O)Cn2nc([N+](=O)[O-])cc2C)ccc1OCc1cccc2ccccc12`, for which the CC50 in experiment [1] is > 40 µM (active). Besides, the IC50 in experiment [2] was > 100 µM (active).
On to `Cc1nc(C)c(C(=O)Nc2nc3c(C)cccc3s2)o1`, for which the IC50 at Ephrin type-A receptor 4 was 11.3 µM (active); against Estrogen receptor beta [3], 0.588 µM (not active); in experiment [4] it was 3.36 µM (active).
In the case of `CC(C)n1nc(C(=O)Nc2cccc(S(=O)(=O)NCc3ccco3)c2)c2ccccc2c1=O`, in the experiment with Vero, the CC50 was 3.81 µM (active).
For `COC(=O)c1ccccc1NC(=O)c1noc2c1CCC2`, the IC50 in experiment [5] was 2.33 µM (active); at Bcl-2-like protein 1, > 109 µM (not active); against Estrogen receptor beta [3] it was 9.45 µM (not active); at Estrogen receptor beta [6], 2.18 µM (active); in experiment [7] it was 13.5 µM (not active); at Bcl-2-like protein 10, 16.5 µM (active). For the same molecule, in experiment [8], the IC50 is listed as > 10 µM (not active).
The AC50 is the concentration at which the activity in the assay is half-maximal. Usually EC50 stands for the concentration needed to bring the measured effect to its halfway point. As to `CCOC(=O)CS(=O)(=O)c1nc(-c2ccccc2)cc(C(F)(F)F)n1`, the IC50 was 5.36 µM (active) on Bcl-2-related protein A1 [9]; 4.43 µM (active) with CHO; 3.72 µM (active) at Bcl-2-related protein A1 [13]; > 100 µM (not active) in experiment [14]; 19.2 µM (inactive) on Beta Lactamase; 4.63 µM (active) and 1.18 µM (active) at Bcl-2-related protein A1 [18]. The AC50 with INS1 was 7.22 µM (active); in experiment [10], 6.93 µM (active); in experiment [11] it was 12.9 µM (active); in experiment [12] it was 6.64 µM (active); in experiment [15], 3.42 µM (active); in [16], 2.9 µM (active). Also, in experiment [17], the AC50 was 2.77 µM (active). Moreover, the concentration giving a half-maximal response (EC50) on Protein RecA was 4.15 µM (active).
Regarding `Cc1cccc2c1NC(=O)/C2=C1\Nc2ccccc2C1=O`, in the experiment on Danio rerio, the half-maximal inhibitory concentration (IC50) is 1.23 µM (active).
On to `Cc1ccc(-c2ccc(S(=O)(=O)NCC3CCCO3)cc2)cc1` (centres undefined), for which, in experiment [19], the IC50 was 7.7 µM (active).

The values are drawn from ChEMBL document CHEMBL1201862, “PubChem BioAssay data set” (2004).
